Assay: gradient 5% acetonitrile 3 min, to 50% in 2 min, to 85% in 15 min, held 3 min, 100 µL/min
Settings: column: Zorbax Extend-C18 2.1 x 50 mm; eluents: water / acetonitrile, 0.1% formic acid
Procedure, shortened: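 The mobile phases were water and acetonitrile, each with 0.1% formic acid, pumped at 100 μL/min through a Zorbax Extend-C18 column (2.1 × 50 mm, 1.8 μm). Pure standards were injected as mixtures of ~100 molecules and detected by a quadrupole time-of-flight mass spectrometer in positive and negative ionization mode. Retention time came from computationally picked adduct peaks, each inspected by hand.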

Row | RP-LC retention time [s] | Structure (SMILES)
1 | 811 | CCc1ccccc1NC(=O)N1C[C@@H](F)C[C@H]1C(=O)N1CCc2ccccc2C1
2 | 842 | Cc1cc(NC(=O)CSc2cc(N3CCCC3)ncn2)ccc1Br
3 | 764 | Clc1cccc(Cc2nc(-c3ccc(-n4ccnc4)nc3)no2)c1
4 | 736 | COC(=O)CNC(=O)c1sc2ncccc2c1-n1cccc1
5 | 590 | COc1ccc(-c2[nH]ncc2CN2CC(F)(F)C[C@H]2CN2CCOCC2)cc1
6 | 885 | Cc1nc(Cn2cccc2C(=O)N2CCc3ccccc32)no1
7 | 687 | O=c1ccc(N2CCC(NS(=O)(=O)c3ccccc3C(F)(F)F)C2)n[nH]1 (centres undefined)
8 | 611 | CCN(CCCNC(=O)C1CCN(c2ncnc3c2oc2ccccc23)CC1)c1ccccc1
9 | 925 | CCOc1ccc(CC(=O)N2CCCC2c2nc(-c3ccc(OC)c(OC)c3)no2)cc1OCC (centres undefined)
10 | 876 | O=c1c(NCCN2CCCC2)nc2ccncc2n1Cc1ccccc1
11 | 709 | CN(CC1CCOC1)C(=O)Nc1ccc(F)c(Cl)c1 (centres undefined)
12 | 1090 | O=C(NCCC1=CCCCC1)C1CCCN(c2nc3ccsc3c(=O)n2Cc2ccc(F)cc2)C1 (centres undefined)
13 | 589 | COCc1nc(-c2ccc(OC3CN(Cc4ccncc4)C3)cc2)no1
14 | 812 | CC(C)c1cccc(NC(=O)Cn2ncc3c(c2=O)N(C2CC2)C(=O)CS3)c1
15 | 640 | O=C(Cc1cccs1)Nc1ccc(-c2nnc3n2CCCC3)cc1
16 | 813 | COc1cccc(N2CCN(C(=O)c3cc(C4CC4)[nH]n3)CC2)c1
17 | 1010 | Cc1nc(-c2ccccc2)cc2nn(CC(=O)N3CCCc4ccccc43)c(=O)n12
18 | 921 | COc1ccc(NC(=O)C2CCN(S(C)(=O)=O)c3ccccc3O2)cc1Cl (centres undefined)
19 | 921 | CCc1csc(-c2ccc(N3CCN(C(=O)c4ccc(F)cc4)CC3)nc2)n1
20 | 876 | CCOC(=O)c1cccc(NC(=O)C2CCCN(c3ncnc4c3nc3n4CCCCC3)C2)c1 (centres undefined)
21 | 683 | CC12CC(NC(=O)N1c1cccc(C(=O)O)c1)c1ccccc1O2 (centres undefined)
22 | 900 | Cc1ccc(NC(=O)CN2CCc3ccccc3C2C(=O)N2CCCCC2)cc1C (centres undefined)
23 | 783 | CCOc1ccc(-n2ccn3c(CCCC(=O)NC4CCCCCC4)nnc3c2=O)cc1
24 | 904 | CCc1ccc(S(=O)(=O)N2CCC(c3nc(C(=O)N4CCOCC4)c(C)o3)CC2)cc1
25 | 626 | CC1CCCN(CCCNC(=O)CCCn2c3ccccc3c3cnn(C)c(=O)c32)C1 (centres undefined)
26 | 756 | Cc1nc(N2CCCC2)c2c(C(=O)Nc3cccc(C)c3C)c(C)oc2n1

Row | RP-LC retention time [s] | Structure (SMILES)
27 | 808 | Cc1ccc(Nc2nc(C)cc(N3CCN(S(=O)(=O)c4ccc(F)c(F)c4)CC3)n2)cc1
28 | 781 | Cc1nnc(NC(=O)CN2CCCCC2c2nc(C(C)C)no2)s1 (centres undefined)
29 | 874 | Cc1ccc(NC(=O)COc2nc(C)nc3ccccc23)c(Br)c1
30 | 886 | O=C(N1CCCC1c1nc(CCOCC2CC2)no1)C1(c2ccccc2)CC1 (centres undefined)
31 | 844 | COc1ccc(C)cc1NC(=O)C1N(C(C)C)C(=O)C12CCCC2 (centres undefined)
32 | 635 | O=C(Nc1ccc(N2CCN(C3CCCC3)C2=O)nc1)c1ccncc1
33 | 687 | Cn1c(=O)n(C)c2cc(CNc3ccc(C(=O)O)cc3)ccc21
34 | 629 | CCN(CC)C(=O)c1cc2c(s1)CCC(C(=O)N1CCN(c3ccccn3)CC1)C2 (centres undefined)
35 | 619 | O=C(Cc1ccsc1)NCC1CCCCC(=O)N1 (centres undefined)
36 | 1060 | COc1ccc(-c2noc(CN3C(=O)COc4cc(Cl)ccc43)n2)cc1
37 | 973 | CSc1ccccc1NC(=O)c1cnc(-c2ccc(C)cc2)nc1-c1ccncc1
38 | 860 | CCN1C(=O)COc2ccc(-c3noc(CNS(=O)(=O)c4ccc(F)cc4)n3)cc21
39 | 872 | CCc1cccc(NC(=O)C2CCN(S(=O)(=O)c3cc(C(=O)N4CCCC4)n(C)c3)CC2)c1
40 | 712 | O=C(Nc1ccc2c(c1)OCCO2)N1CCC2(CCCCO2)CC1
41 | 1000 | C=CCn1c(=O)c2ccccc2n(Cc2nc(-c3ccccc3OCC)no2)c1=O
42 | 770 | CCn1ccc(C(=O)NCC23CCC=C2N(CC2CC2)C(=O)CC3)n1 (centres undefined)
43 | 597 | CC(=O)Nc1c(C)nn(-c2ccccc2)c1N1CCC(C(=O)N2CCN(C3CCCCC3)CC2)CC1
44 | 719 | CCCN(C)c1nccn2c(=O)n(CC(=O)Nc3ccc(C)cc3F)nc12
45 | 841 | Cc1ccc(CN2CCN(C3CCN(C(=O)Nc4ccc5c(c4)OCO5)CC3)C2=O)cc1
46 | 604 | Cn1c(C(=O)NCc2ccccc2)cc2ccncc21
47 | 922 | Cc1ccc(-c2nnc(-c3ccccc3)o2)cc1S(=O)(=O)N1CCOCC1
48 | 930 | O=C(NCCC1=CCCCC1)c1ccc2c(c1)NC(=O)C1CCCCN21 (centres undefined)
49 | 827 | COc1ccc(C)cc1NC(=O)N1C[C@@H]2C[C@H](NC(=O)c3cccs3)[C@H]1C2
50 | 938 | Cc1cnn(Cc2nc(-c3ccc(NC(=O)c4sccc4C)cc3)oc2C)c1
51 | 597 | CCOC(=O)C1=C(CN2CCCC2)NC(=O)NC1c1ccc(OC)cc1 (centres undefined)

More lines, now with the values behind:

Row | Structure (SMILES) | RP-LC retention time [s]
52 | COc1cc(NC(=O)COc2cc(C)nc(-c3ccc(C(F)(F)F)cc3)n2)cc(OC)c1OC | 1080
53 | Fc1ccc(-c2nnc(Cc3nc(-c4cccnc4)no3)o2)cc1 | 747
54 | Cc1cc(OCC(=O)N2CCC3(O)CCCCC3C2)c2c3c(c(=O)oc2c1)CCCC3 (centres undefined) | 859
55 | Cc1ccc(CNC(=O)C2(C)CN(S(C)(=O)=O)CC(=O)N2c2cc(C)cc(C)c2)cc1 (centres undefined) | 860
56 | Cn1nnnc1SCC(=O)Nc1nc2c(s1)C(=O)CCC2 | 607
57 | Cc1nc(-c2csc(S(=O)(=O)NCc3ccccc3Cl)c2)sc1C | 1030
58 | COCCC1(NS(C)(=O)=O)CCN(C(=O)C2(c3ccc(OC)cc3)CC2)CC1 | 710
59 | COc1ccc(Cc2nc3nccc(-c4ccccn4)n3n2)cc1 | 768
60 | C=C1/C(=C/C=C2/CCC[C@]3(C)[C@@H]([C@H](C)CCCC(C)C)CC[C@@H]23)C[C@@H](O)C[C@@H]1O | 1220
61 | CNC(=O)[C@@H]1CN(C(=O)c2sc(C)nc2C)C[C@H]1c1n[nH]c(C)n1 | 559
62 | O=C(O)CSc1c(-c2ccccc2)c2cc(Cl)ccc2[nH]c1=O | 806
63 | O=C(CCN1CCN(CCO)CC1)N1c2ccccc2Sc2ccc(C(F)(F)F)cc21 | 673
64 | CCOC(=O)CCNC(=O)N1c2ccccc2CC1c1nc(C(C)C)no1 (centres undefined) | 609
65 | CN(C)c1ccc(Nc2nc(-c3ccc(Br)cc3)cs2)cc1 | 787
66 | Cc1nc(-c2ccc(-c3noc(CNS(=O)(=O)c4ccccc4)n3)cc2)cs1 | 960
67 | Cc1ccc(Nc2nc(C(=O)NCCc3cccs3)nc3ccccc23)cc1 | 840
68 | Cc1ccc(-c2ccc(=O)n(Cc3nc(-c4cccs4)no3)n2)cc1C | 1060
69 | CCOc1ccc(-n2ccn3cc(-c4ccc(C)cc4C)nc3c2=O)cc1 | 942
70 | CCCN(CCC)c1nc(-c2ccc(OC)cc2)nc2ccccc12 | 896

Row | Structure (SMILES) | RP-LC retention time [s]
71 | COc1ccccc1NC1=NS(=O)(=O)c2ccccc21 | 769
72 | COc1ccc(-c2nc3ncccn3c2Nc2ccc(C)c(Cl)c2)cc1 | 821
73 | CCn1cc(C(=O)Nc2ccccc2)c2cccnc21 | 798
74 | CCCn1nnc2cc(-c3noc(COc4ccc(Cl)cc4)n3)ccc21 | 1120
75 | CC(C)CCNC(=O)C1(C)CN(S(=O)(=O)c2ccccc2)CC(=O)N1c1ccc(F)cc1F (centres undefined) | 972
76 | CCCCC(=O)Nc1cnc(N(CC)CC(=O)C(C)(C)C)c(C(=O)O)c1 | 628
77 | COCC(C)(O)CNC(=O)Cc1cccc(C)c1 (centres undefined) | 621
78 | CN1CC[C@@H]2CN3CCc4cccc(c43)[C@@H]2C1 | 644
79 | NS(=O)(=O)c1ccc(CNC(=O)CCCn2cnc(-c3ccc(F)cc3)cc2=O)cc1 | 652
80 | CC(C)CNC(=O)CCn1c(=O)c2ccccc2n2c(=O)n(Cc3cccc(F)c3)nc12 | 867
81 | Cc1nn(C(=O)C(C)(C)C)c(C)c1S(=O)(=O)N1CCCC1 | 1180
82 | Cc1nc2cc(-c3noc(-c4cc(Cl)ccc4F)n3)ccc2o1 | 1150
83 | Cc1noc(C)c1CN1CCN(C(=O)Cn2c(=O)oc3ccccc32)CC1 | 550
84 | Cc1ccc(Nc2nc(-c3ccc(C(C)C)cc3)cs2)nc1 | 1130
85 | O=c1c2ccccc2c(-c2nc(-c3cccnc3)no2)cn1-c1ccc(Cl)cc1 | 1120
86 | COc1cc(C2CN(C(=O)c3ccc4c(c3)OCO4)CC2C(=O)NCCC(C)C)cc(OC)c1OC (centres undefined) | 738
87 | COCCn1nc(C(=O)N(C)CCCc2c(C)nn(C)c2C)c2c1CCNC2 | 572
88 | Cc1cc(-c2nnc(-c3ccco3)o2)c(C)n1CC(=O)NCc1ccc(F)c(Cl)c1 | 882
89 | CC(C)CN1CCN(S(=O)(=O)c2ccc(-c3nnc(C(C)C)o3)o2)CC1 | 652

From the METLIN SMRT retention time set (Domingo-Almenara et al. 2019)
